Reference: patent publication US6472418B1, “Non-peptide NK1 receptors antagonists” (Warner-Lambert Company, priority 1998, dated 2002)

target: T1, Human NK1 Receptor (Homo sapiens, UniProt P25103); test: In Vitro Human NK1 Receptor Binding Assay ([125I]Bolton-Hunter substance P displacement, IM9 cells); settings: Human lymphoma IM9 cells, [125I]Bolton-Hunter substance P; Table 3, array-synthesis products; read-out: IC50 (nM) hNK1
T1 construct: endogenous in cells; host or cells: Human lymphoma IM9 cells (whole cells)
Method: They have been evaluated in an NK1-receptor binding assay which is described below.
Human lymphoma IM9 cells were grown in RPMI 1640 culture medium supplemented with 10% fetal calf serum and 2 mM glutamine and maintained under an atmosphere of 5% CO2. Cells were passaged every 3-4 days by reseeding to a concentration of 4-8×10^6/40 ml per 175 cm^2 flask. Cells were harvested for experiments by centrifugation at 1000 g for 3 min. Pelleted cells were washed once by resuspension into assay buffer (50 mM Tris HCl pH 7.4, 3 mM MnCl2, 0.02% BSA, […] bacitracin, […] chymostatin, 2 mM phosphoramidon, […] leupeptin) and repeating the centrifugation step before resuspending at a concentration of 2.5×10^6 cells/mL assay buffer. Cells ([…]) were incubated with [^125I]Bolton-Hunter substance P (0.05-0.1 nM) in the presence and absence of varying concentrations of test compounds for 50 min at 21° C. Non-specific binding (10% of the total binding observed under these conditions) was defined by […] [Sar^9, Met(02)^11] substance P. Reactions were terminated by rapid filtration under vacuum onto GF\C filters presoaked in 0.2% PEI for 1-2 h, using a Brandel cell harvester. Filters were washed with 6×1 ml ice-cold Tris HCl (50 mM, pH 7.4) and radioactivity bound determined using a gamma couter. Results were analyzed using iterative curve fitting procedures in RS1 or Graphpad Inplot.

T1 sequence (P25103 whole entry): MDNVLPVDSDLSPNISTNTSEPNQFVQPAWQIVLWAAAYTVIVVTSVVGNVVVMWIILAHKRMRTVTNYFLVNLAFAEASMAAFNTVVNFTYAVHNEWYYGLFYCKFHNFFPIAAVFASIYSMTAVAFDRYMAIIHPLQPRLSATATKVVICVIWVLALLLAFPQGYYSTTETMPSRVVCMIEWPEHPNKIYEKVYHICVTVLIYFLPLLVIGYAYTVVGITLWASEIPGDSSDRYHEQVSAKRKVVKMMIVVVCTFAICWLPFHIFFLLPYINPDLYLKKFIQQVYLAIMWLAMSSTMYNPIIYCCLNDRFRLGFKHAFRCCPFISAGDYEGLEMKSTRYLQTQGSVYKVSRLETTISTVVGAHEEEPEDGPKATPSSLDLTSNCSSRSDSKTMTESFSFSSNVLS

| SMILES | IC50 |
| --- | --- |
| CC(NC(=O)C(Cc1c[nH]c2ccccc12)NCc1cc2ccccc2o1)c1ccc(N(C)C)cc1 (centres unmarked) [Example 217, 2-[(Benzofuran-2-ylmethyl)-amino]-N-[1-(4-dimethylamino-phenyl)-ethyl]-3-(1H-indol-3-yl)-propionamide] | 819 nM |
| O=C(NCc1cc(C(F)(F)F)cc(C(F)(F)F)c1)C(Cc1c[nH]c2ccccc12)NCc1cc2ccccc2o1 (centres unmarked) [Example 218, 2-[(Benzofuran-2-ylmethyl)-amino]-N-(3,5-bis-trifluoromethyl-benzyl)-3-(1H-indol-3-yl)-propionamide] | 294 nM |
| O=C(NCc1ccc([N+](=O)[O-])cc1)C(Cc1c[nH]c2ccccc12)NCc1cc2ccccc2o1 (centres unmarked) [Example 221, 2-[(Benzofuran-2-ylmethyl)-amino]-3-(1H-indol-3-yl)-N-(4-nitro-benzyl)-propionamide] | 23 nM |
| O=C(NCCN1CCCC1)C(Cc1c[nH]c2ccccc12)NCc1cc2ccccc2o1 (centres unmarked) [Example 222, 2-[(Benzofuran-2-ylmethyl)-amino]-3-(1H-indol-3-yl)-N-(2-pyrrolidin-1-yl-ethyl)-propionamide] | > 10000 nM |
| O=C(NCC1CCCO1)C(Cc1c[nH]c2ccccc12)NCc1cc2ccccc2o1 (centres unmarked) [Example 223, 2-[(Benzofuran-2-ylmethyl)-amino]-3-(1H-indol-3-yl)-N-(tetrahydro-furan-2-ylmethyl)-propionamide] | > 10000 nM |
| O=C(NCC1CCCCC1)C(Cc1c[nH]c2ccccc12)NCc1cc2ccccc2o1 (centres unmarked) [Example 226, 2-[(Benzofuran-2-ylmethyl)-amino]-N-cyclohexylmethyl-3-(1H-indol-3-yl)-propionamide] | 54 nM |
| CC(NC(=O)C(Cc1c[nH]c2ccccc12)NCc1cc2ccccc2o1)c1cccc(N(C)C)c1 (centres unmarked) [Example 227, 2-[(Benzofuran-2-ylmethyl)-amino]-N-[1-(3-dimethylamino-phenyl)-ethyl]-3-(1H-indol-3-yl)-propionamide] | 182 nM |
| O=C(NCc1ccc(F)c(Cl)c1)C(Cc1c[nH]c2ccccc12)NCc1cc2ccccc2o1 (centres unmarked) [Example 229, 2-[(Benzofuran-2-ylmethyl)-amino]-N-(3-chloro-4-fluoro-benzyl)-3-(1H-indol-3-yl)-propionamide] | 33 nM |
| CC(NC(=O)C(Cc1c[nH]c2ccccc12)NCc1cc2ccccc2o1)c1ccn(C)c1 (centres unmarked) [Example 230, 2-[(Benzofuran-2-ylmethyl)-amino]-3-(1H-indol-3-yl)-N-[1-(1-methyl-1H-pyrrol-3-yl)-ethyl]-propionamide] | 21 nM |
| O=C(NCc1cccnc1)C(Cc1c[nH]c2ccccc12)NCc1cc2ccccc2o1 (centres unmarked) [Example 231, 2-[(Benzofuran-2-ylmethyl)-amino]-3-(1H-indol-3-yl)-N-pyridin-3-ylmethyl-propionamide] | 790 nM |
| O=C(NCc1cccs1)C(Cc1c[nH]c2ccccc12)NCc1cc2ccccc2o1 (centres unmarked) [Example 232, 2-[(Benzofuran-2-ylmethyl)-amino]-3-(1H-indol-3-yl)-N-thiophen-2-ylmethyl-propionamide] | 63 nM |
| CC(CNC(=O)C(Cc1c[nH]c2ccccc12)NCc1cc2ccccc2o1)c1ccccc1 (centres unmarked) [Example 233, 2-[(Benzofuran-2-ylmethyl)-amino]-3-(1H-indol-3-yl)-N-(2-phenyl-propyl)-propionamide] | 2000 nM |
| CC(NC(=O)C(Cc1c[nH]c2ccccc12)NCc1cc2ccccc2o1)c1ccsc1 (centres unmarked) [Example 236, 2-[(Benzofuran-2-ylmethyl)-amino]-3-(1H-indol-3-yl)-N-(1-thiophen-3-yl-ethyl)-propionamide] | 7 nM |
| O=C(CNC(=O)C(Cc1c[nH]c2ccccc12)NCc1cc2ccccc2o1)c1ccccc1 (centres unmarked) [Example 237, 2-[(Benzofuran-2-ylmethyl)-amino]-3-(1H-indol-3-yl)-N-(2-oxo-2-phenyl-ethyl)-propionamide] | 5340 nM |
| CC(NC(=O)C(Cc1c[nH]c2ccccc12)NCc1cc2ccccc2o1)C1CCCCC1 (centres unmarked) [Example 241, 2-[(Benzofuran-2-ylmethyl)-amino]-N-(1-cyclohexyl-ethyl)-3-(1H-indol-3-yl)-propionamide] | 2 nM |
| Cc1ccccc1CNC(=O)C(Cc1c[nH]c2ccccc12)NCc1cc2ccccc2o1 (centres unmarked) [Example 242, 2-[(Benzofuran-2-ylmethyl)-amino]-3-(1H-indol-3-yl)-N-(2-methyl-benzyl)-propionamide] | 170 nM |
| CC(NC(=O)C(Cc1c[nH]c2ccccc12)NCc1cc2ccccc2o1)c1ccc(Cl)s1 (centres unmarked) [Example 243, 2-[(Benzofuran-2-ylmethyl)-amino]-N-[1-(5-chloro-thiophen-2-yl)-ethyl]-3-(1H-indol-3-yl)-propionamide] | 15 nM |
| O=C(NCc1ccc(F)cc1)C(Cc1c[nH]c2ccccc12)NCc1cc2ccccc2o1 (centres unmarked) [Example 244, 2-[(Benzofuran-2-ylmethyl)-amino]-N-(4-fluoro-benzyl)-3-(1H-indol-3-yl)-propionamide] | 12 nM |
| O=C(NCCc1cccs1)C(Cc1c[nH]c2ccccc12)NCc1cc2ccccc2o1 (centres unmarked) [Example 247, 2-[(Benzofuran-2-ylmethyl)-amino]-3-(1H-indol-3-yl)-N-(2-thiophen-2-yl-ethyl)-propionamide] | 56 nM |
| O=C(NCc1cccc(F)c1)C(Cc1c[nH]c2ccccc12)NCc1cc2ccccc2o1 (centres unmarked) [Example 248, 2-[(Benzofuran-2-ylmethyl)-amino]-N-(3-fluoro-benzyl)-3-(1H-indol-3-yl)-propionamide] | 6 nM |
| Cc1cccc(CNC(=O)C(Cc2c[nH]c3ccccc23)NCc2cc3ccccc3o2)c1 (centres unmarked) [Example 252, 2-[(Benzofuran-2-ylmethyl)-amino]-3-(1H-indol-3-yl)-N-(3-methyl-benzyl)-propionamide] | 33 nM |
| O=C(NC1CCc2ccccc2C1)C(Cc1c[nH]c2ccccc12)NCc1cc2ccccc2o1 (centres unmarked) [Example 253, 2-[(Benzofuran-2-ylmethyl)-amino]-3-(1H-indol-3-yl)-N-(1,2,3,4-tetrahydro-naphthalen-2-yl)-propionamide] | 3330 nM |
| O=C(NCc1ccccc1)C(Cc1c[nH]c2ccccc12)NCc1cc2ccccc2o1 (centres unmarked) [Example 254, 2-[(Benzofuran-2-ylmethyl)-amino]-N-benzyl-3-(1H-indol-3-yl)-propionamide] | 22 nM |

Further compounds by falling IC50, results first:

| IC50 | SMILES |
| --- | --- |
| 3410 nM | O=C(NCc1nc2ccccc2[nH]1)C(Cc1c[nH]c2ccccc12)NCc1cc2ccccc2o1 (centres unmarked) [Example 250, 2-[(Benzofuran-2-ylmethyl)-amino]-N-(1H-benzoimidazol-2-ylmethyl)-3-(1H-indol-3-yl)-propionamide] |
| 2900 nM | O=C(NC1CC1c1ccccc1)C(Cc1c[nH]c2ccccc12)NCc1cc2ccccc2o1 (centres unmarked) [Example 224, 2-[(Benzofuran-2-ylmethyl)-amino]-3-(1H-indol-3-yl)-N-(2-phenyl-cyclopropyl)-propionamide] |
| 1340 nM | CC(C)(NC(=O)C(Cc1c[nH]c2ccccc12)NCc1cc2ccccc2o1)C1CCCCC1 (centres unmarked) [Example 225, 2-[(Benzofuran-2-ylmethyl)-amino]-N-(1-cyclohexyl-1-methyl-ethyl)-3-(1H-indol-3-yl)-propionamide] |
| 243 nM | O=C(NC1Cc2ccccc2C1)C(Cc1c[nH]c2ccccc12)NCc1cc2ccccc2o1 (centres unmarked) [Example 239, 2-[(Benzofuran-2-ylmethyl)-amino]-N-indan-2-yl-3-(1H-indol-3-yl)-propionamide] |
| 196 nM | O=C(NCc1ccncc1)C(Cc1c[nH]c2ccccc12)NCc1cc2ccccc2o1 (centres unmarked) [Example 240] |
| 129 nM | O=C(NCCc1ccco1)C(Cc1c[nH]c2ccccc12)NCc1cc2ccccc2o1 (centres unmarked) [Example 251, 2-[(Benzofuran-2-ylmethyl)-amino]-N-(2-furan-2-yl-ethyl)-3-(1H-indol-3-yl)-propionamide] |
| 89 nM | O=C(NCc1ccccc1F)C(Cc1c[nH]c2ccccc12)NCc1cc2ccccc2o1 (centres unmarked) [Example 238, 2-[(Benzofuran-2-ylmethyl)-amino]-N-(2-fluoro-benzyl)-3-(1H-indol-3-yl)-propionamide] |
| 82 nM | O=C(NCc1cccc(C(F)(F)F)c1)C(Cc1c[nH]c2ccccc12)NCc1cc2ccccc2o1 (centres unmarked) [Example 228, 2-[(Benzofuran-2-ylmethyl)-amino]-3-(1H-indol-3-yl)-N-(3-trifluoromethyl-benzyl)-propionamide] |
| 77 nM | O=C(NCCc1ccccc1)C(Cc1c[nH]c2ccccc12)NCc1cc2ccccc2o1 (centres unmarked) [Example 246, 2-[(Benzofuran-2-ylmethyl)-amino]-3-(1H-indol-3-yl)-N-phenethyl-propionamide] |
| 75 nM | CC(NC(=O)C(Cc1c[nH]c2ccccc12)NCc1cc2ccccc2o1)c1ccccc1 (centres unmarked) [Example 234, 2-[(Benzofuran-2-ylmethyl)-amino]-3-(1H-indol-3-yl)-N-(1-phenyl-ethyl)-propionamide] |
| 31 nM | O=C(NCc1cccc(Br)c1)C(Cc1c[nH]c2ccccc12)NCc1cc2ccccc2o1 (centres unmarked) [Example 219] |
| 3 nM | CC(NC(=O)C(Cc1c[nH]c2ccccc12)NCc1cc2ccccc2o1)c1ccc(F)cc1 (centres unmarked) [Example 235, 2-[(Benzofuran-2-ylmethyl)-amino]-N-[1-(4-fluoro-phenyl)-ethyl]-3-(1H-indol-3-yl)-propionamide] |
